The source of these data is patent US20230086702A1, “SUBSTITUTED 2-AMINO-PYRAZOLYL-[1,2,4]TRIAZOLO[1,5A]PYRIDINE DERIVATIVES AND USE THEREOF” (The Johns Hopkins University, priority 2019, published 2023).

By IC50 is commonly meant the concentration that gives 50% inhibition. Read a high IC50 as weaker potency.

The structures appear in SMILES notation.

Assay [1] addresses T1, DLK (Homo sapiens, UniProt Q12852).
T1 construct: 10 nM DLK, catalytic domain, Carna Biosiences; purchased Carna Biosciences ('Carna Biosiences' [sic])
T1 sequence (Q12852 125-366 limits assumed): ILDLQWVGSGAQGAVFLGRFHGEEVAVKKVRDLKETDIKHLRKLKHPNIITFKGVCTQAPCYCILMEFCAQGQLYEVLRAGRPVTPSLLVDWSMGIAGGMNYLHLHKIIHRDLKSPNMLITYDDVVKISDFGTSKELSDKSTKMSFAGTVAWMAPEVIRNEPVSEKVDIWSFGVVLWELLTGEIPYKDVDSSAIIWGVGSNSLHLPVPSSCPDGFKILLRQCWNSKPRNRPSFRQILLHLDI
The assay can be described thus: DLK biochemical assay (TR-FRET, MKK7 phosphorylation). To be noted: DLK catalytic domain, MKK7 substrate, 60 μM ATP. Here is the method:
(§1) DLK assay is a biochemical assay format designed to screen for inhibitors of DLK. Enzymatic activity of DLK is measured by monitoring phosphorylation of the physiological substrate MKK7 (MAP2K7, Dual specificity mitogen-activated protein kinase kinase 7). Phosphorylation is detected by a TR-FRET system whereby His-tagged MKK7 is labeled by a XL665-labeled anti-His antibody (FRET acceptor, emission 665 nm). DLK phosphorylates MKK7 at T275/S277, which is detected by an Eu-labeled anti-phospho-MKK7 (T275/S277) antibody (FRET donor, excitation 340 nm). Phosphorylation of MKK7 results in an increased TR-FRET signal (Ratio XL665-channel/Eu-channel) and inhibition of enzymatic activity of DLK decreases the TR-FRET signal.
All indicated concentrations are final concentrations.
(§2) Detection buffer: 25 mM Tris/HCl pH 7.5, 100 mM EDTA, 100 mM NaCl, 200 mM KF, 0.01% Tween 20, 1:500 Smart Block.

In assay [2] the target is T2, LZK (Homo sapiens, UniProt O43283).
T2 construct: 10 nM LZK, catalytic domain, Carna Biosiences in assay buffer; purchased Carna Biosciences ('Carna Biosiences' [sic])
T2 sequence (O43283 168-409 limits assumed): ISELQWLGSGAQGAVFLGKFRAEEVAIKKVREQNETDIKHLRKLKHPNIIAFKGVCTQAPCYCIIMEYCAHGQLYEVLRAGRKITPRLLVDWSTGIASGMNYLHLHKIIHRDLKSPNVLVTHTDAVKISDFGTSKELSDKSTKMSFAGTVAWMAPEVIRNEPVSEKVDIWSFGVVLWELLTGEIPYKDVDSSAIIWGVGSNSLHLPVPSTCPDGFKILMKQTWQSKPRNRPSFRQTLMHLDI
The experiment in a line: LZK biochemical assay (TR-FRET, MKK7 phosphorylation). The following applies: LZK catalytic domain, MKK7 substrate, 15 μM ATP. Here is the method: as §1, with “LZK” for “DLK”, “LZK.” for “DLK.”, “T275/S277” for “T275/S277,”
All indicated concentrations final concentrations.
as §2
Background: TR-FRET usually uses a lanthanide donor and a delayed reading to cut background.

Take `CC[C@H](C)NC(=O)c1cc(-c2cnn(C(COC)c3ccccc3)c2)cn2nc(N)nc12` (mixture of isomers) [Example I-40, 2-Amino-N-[(2S)-butan-2-yl]-6-[1-(2-methoxy-1-phenylethyl)-1H-pyrazol-4-yl][1,2,4]triazolo[1,5-a]pyridine-8-carboxamide]: the IC50 was 4.5 nM in assay [1] and 67 nM in assay [2].

Turning to `CC[C@H](C)NC(=O)c1cc(-c2cnn(C(c3ccc(F)cc3)C(C)C)c2)cn2nc(N)nc12` (mixture of isomers) [Example I-43, 2-Amino-N-[(2S)-butan-2-yl]-6-{1-[1-(4-fluorophenyl)-2-methylpropyl]-1H-pyrazol-4-yl}[1,2,4]triazolo[1,5-a]pyridine-8-carboxamide], the IC50 in assay [1] worked out at 2.9 nM; in assay [2], 66 nM.

Take `CCC(c1ccc(N2CCOCC2)cc1)n1cc(-c2cc(C(=O)N[C@@H](C)CC)c3nc(N)nn3c2)cn1` (mixture of isomers) [Example I-47, 2-Amino-N-[(2S)-butan-2-yl]-6-(1-{1-[4-(morpholin-4-yl)phenyl]propyl}-1H-pyrazol-4-yl)[1,2,4]triazolo[1,5-a]pyridine-8-carboxamide]: the IC50 in assay [1] amounted to 3.8 nM; in assay [2], 40 nM.

Consider `CC[C@H](C)NC(=O)c1cc(-c2cnn(C(c3ccccc3)C3CCOCC3)c2)cc2nc(N)nn12` (mixture of isomers) [Example I-51, 2-Amino-N-[(2S)-butan-2-yl]-7-{1-[phenyl(tetrahydro-2H-pyran-4-yl)methyl]-1H-pyrazol-4-yl}[1,2,4]triazolo[1,5-a]pyridine-5-carboxamide], for which the values for the IC50 in assay [1] and in assay [2] were 1.8 nM and 8.7 nM, respectively.

With `CCC(c1ccc(F)cn1)n1cc(-c2cc(C(=O)N[C@@H](C)CC)c3nc(N)nn3c2)cn1` (mixture of isomers) [Example I-55, 2-Amino-N-[(2S)-butan-2-yl]-6-{1-[1-(5-fluoropyridin-2-yl)propyl]-1H-pyrazol-4-yl}[1,2,4]triazolo[1,5-a]pyridine-8-carboxamide], the IC50 in assay [1] turned out to be 6.7 nM; in assay [2], 49 nM.

Take `CCC(c1cncc(Cl)c1)n1cc(-c2cc(C(=O)N[C@@H](C)CC)c3nc(N)nn3c2)cn1` (mixture of isomers) [Example I-58, 2-Amino-N-[(2S)-butan-2-yl]-6-{1-[1-(5-chloropyridin-3-yl)propyl]-1H-pyrazol-4-yl}[1,2,4]triazolo[1,5-a]pyridine-8-carboxamide]: the IC50 in assay [1] came out at 1.6 nM; in assay [2], 16 nM.

Regarding `CC[C@H](C)NC(=O)c1cc(-c2cnn(C(c3cncc(Cl)c3)C(C)C)c2)cn2nc(N)nc12` (mixture of isomers) [Example I-61, 2-Amino-N-[(2S)-butan-2-yl]-6-{1-[1-(5-chloropyridin-3-yl)-2-methylpropyl]-1H-pyrazol-4-yl}[1,2,4]triazolo[1,5-a]pyridine-8-carboxamide], the IC50 in assay [1] was 0.6 nM; in assay [2], 3.3 nM.

For `CCC(c1ccc(C(F)F)nc1)n1cc(-c2cc(C(=O)N[C@@H](C)CC)c3nc(N)nn3c2)cn1` (mixture of isomers) [Example I-64, 2-Amino-N-[(2S)-butan-2-yl]-6-(1-{1-[6-(difluoromethyl)pyridin-3-yl]propyl}-1H-pyrazol-4-yl)[1,2,4]triazolo[1,5-a]pyridine-8-carboxamide], the values for the IC50 in assay [1] and in assay [2] were 1.7 nM and 7 nM, respectively.

With `CC[C@H](C)NC(=O)c1cc(-c2cnn(C(c3ccc(C(F)F)nc3)C(C)C)c2)cn2nc(N)nc12` (mixture of isomers) [Example I-67, 2-Amino-N-[(2S)-butan-2-yl]-6-(1-{1-[6-(difluoromethyl)pyridin-3-yl]-2-methylpropyl}-1H-pyrazol-4-yl)[1,2,4]triazolo[1,5-a]pyridine-8-carboxamide], the IC50 worked out at 1.1 nM in assay [1] and 5.6 nM in assay [2].

Regarding `CCC(c1ccc(C(F)(F)F)nc1)n1cc(-c2cc(C(=O)N[C@@H](C)CC)c3nc(N)nn3c2)cn1` (mixture of isomers) [Example I-70, 2-Amino-N-[(2S)-butan-2-yl]-6-(1-{1-[6-(trifluoromethyl)pyridin-3-yl]propyl}-1H-pyrazol-4-yl)[1,2,4]triazolo[1,5-a]pyridine-8-carboxamide], the figures for the IC50 in assay [1] and in assay [2] were 2.1 nM and 6.5 nM, respectively.

On to `CC[C@H](C)NC(=O)c1cc(-c2cnn(C(c3ccc(C(F)(F)F)nc3)C(C)C)c2)cn2nc(N)nc12` (mixture of isomers) [Example I-73, 2-Amino-N-[(2S)-butan-2-yl]-6-(1-{2-methyl-1-[6-(trifluoromethyl)pyridin-3-yl]propyl}-1H-pyrazol-4-yl)[1,2,4]triazolo[1,5-a]pyridine-8-carboxamide], for which the IC50 worked out at 1.6 nM in assay [1] and 5.8 nM in assay [2].

Take `CC[C@H](C)NC(=O)c1cc(-c2cnn(C(c3ccc(C(F)(F)F)nc3)C3CCOCC3)c2)cn2nc(N)nc12` (mixture of isomers) [Example I-76, 2-Amino-N-[(2S)-butan-2-yl]-6-(1-{tetrahydro-2H-pyran-4-yl[6-(trifluoromethyl)pyridin-3-yl]methyl}-1H-pyrazol-4-yl)[1,2,4]triazolo[1,5-a]pyridine-8-carboxamide]: the IC50 in assay [1] was 0.5 nM; in assay [2], 1.1 nM.

On to `CC[C@H](C)NC(=O)c1cc(-c2cnn(C(c3ccc(C(F)(F)F)nc3)C3CCN(C(=O)OC(C)(C)C)CC3)c2)cn2nc(N)nc12` (mixture of isomers) [Example I-79, tert-Butyl 4-{(4-{2-amino-8-[(2S)-butan-2-ylcarbamoyl][1,2,4]triazolo[1,5-a]pyridin-6-yl}-1H-pyrazol-1-yl)[6-(trifluoromethyl)pyridin-3-yl]methyl}piperidine-1-carboxylate], for which the results for the IC50 in assay [1] and in assay [2] were 0.8 nM and 1.4 nM, respectively.

As for `CCC(c1ccc(OCC(F)(F)F)nc1)n1cc(-c2cc(C(=O)N[C@@H](C)CC)c3nc(N)nn3c2)cn1` (mixture of isomers) [Example I-85, 2-Amino-N-[(2S)-butan-2-yl]-6-(1-{1-[6-(2,2,2-trifluoroethoxy)pyridin-3-yl]propyl}-1H-pyrazol-4-yl)[1,2,4]triazolo[1,5-a]pyridine-8-carboxamide], the results for the half-inhibitory concentration (IC50) in assay [1] and in assay [2] were 4.7 nM and 38 nM, respectively.

As for `CC[C@H](C)NC(=O)c1cc(-c2cnn(C(c3ccc(OCC(F)(F)F)nc3)C(C)C)c2)cn2nc(N)nc12` (mixture of isomers) [Example I-88, 2-Amino-N-[(2S)-butan-2-yl]-6-(1-{2-methyl-1-[6-(2,2,2-trifluoroethoxy)pyridin-3-yl]propyl}-1H-pyrazol-4-yl)[1,2,4]triazolo[1,5-a]pyridine-8-carboxamide], the IC50 in assay [1] was found to be 7.5 nM; in assay [2] it was 120 nM.

As for `CC[C@H](C)NC(=O)c1cc(-c2cnn(C(c3ccnc(C(F)(F)F)c3)C(C)C)c2)cn2nc(N)nc12` (mixture of isomers) [Example I-91, 2-Amino-N-[(2S)-butan-2-yl]-6-(1-{2-methyl-1-[2-(trifluoromethyl)pyridin-4-yl]propyl}-1H-pyrazol-4-yl)[1,2,4]triazolo[1,5-a]pyridine-8-carboxamide], the IC50 in assay [1] is 2.9 nM; in assay [2] it was 15 nM.
